This is an account of results in ChEMBL document CHEMBL3407331, “Discovery of AM-7209, a potent and selective 4-amidobenzoic acid inhibitor of the MDM2-p53 interaction” (J Med Chem, 2014).

Molecules are shown by their SMILES. Calls of active or inactive are those of the source. The calls are words filed in the database; no cut-off is given here.

Data set [1] can be described thus: Drug metabolism in dog hepatocytes assessed as demethylated metabolite M3 formation at 10 uM after 2 hrs by LC/MS analysis. The format is ADME, cell-based, Canis lupus familiaris, Hepatocyte.
The nature of data set [2]: Oral bioavailability in mouse. The format is ADME, organism-based. The conditions noted are these: in vivo.
In a further data set the test system is SJSA-1. In words: Antitumor activity against human SJSA1 cells xenografted in athymic nude mouse assessed as complete tumor regression at 25 to 50 mg/kg, po qd for 4 days measured after 30 days. The format is functional, organism-based.
Data set [3] has as its target T1, E3 ubiquitin-protein ligase Mdm2 (Homo sapiens, UniProt Q00987). In words: Binding affinity to human MDM2 by isothermal titration calorimetry.
Data set [4] in a line: Drug metabolism in cynomolgus monkey hepatocytes assessed as demethylated metabolite M3 formation at 10 uM after 2 hrs by LC/MS analysis. The format is ADME, cell-based, Macaca fascicularis, Hepatocyte.
Data set [5] in a line: Drug metabolism in dog hepatocytes assessed as oxidative metabolite M2 formation at 10 uM after 2 hrs by LC/MS analysis. The format is ADME, cell-based, Canis lupus familiaris, Hepatocyte.
The target in data set [6] is T1, E3 ubiquitin-protein ligase Mdm2.
The nature of data set [7]: Antitumor activity against human HCT116 cells xenografted in athymic nude mouse assessed as tumor growth inhibition at 100 mg/kg, po qd starting on day 10 of tumor implantation. The format is functional. The settings on record: HCT-116, 240 h, read-out: TGI.
Data set [8] can be described thus: Oral bioavailability in dog. The format is ADME, organism-based, Canis lupus familiaris. The settings on record: in vivo.
Data set [9] in a line: Drug metabolism in human hepatocytes assessed as oxidative metabolite M2 formation at 10 uM after 2 hrs by LC/MS analysis. The format is ADME, cell-based, Hepatocyte.
The target in data set [10] is T2, CYP3A4 (Homo sapiens, UniProt P08684). In words: Time-dependent inhibition of CYP3A4 (unknown origin) assessed as remaining activity at 10 uM after 30 mins. The format is ADME. The settings on record: read-out: Activity.
T2 sequence (P08684 whole entry): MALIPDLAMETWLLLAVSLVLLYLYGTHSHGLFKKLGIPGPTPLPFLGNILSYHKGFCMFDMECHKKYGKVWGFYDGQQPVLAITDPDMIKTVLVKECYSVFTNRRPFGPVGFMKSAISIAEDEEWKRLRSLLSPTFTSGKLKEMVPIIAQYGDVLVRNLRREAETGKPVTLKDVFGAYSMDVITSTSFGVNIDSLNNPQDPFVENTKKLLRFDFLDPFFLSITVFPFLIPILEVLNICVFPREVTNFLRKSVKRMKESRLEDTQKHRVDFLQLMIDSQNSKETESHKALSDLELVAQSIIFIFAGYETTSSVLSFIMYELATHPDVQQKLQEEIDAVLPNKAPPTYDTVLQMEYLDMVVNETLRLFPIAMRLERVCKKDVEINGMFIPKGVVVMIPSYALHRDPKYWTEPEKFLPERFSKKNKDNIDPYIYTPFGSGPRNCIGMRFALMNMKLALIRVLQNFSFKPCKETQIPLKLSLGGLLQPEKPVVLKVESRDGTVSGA
Data set [11] in a line: Drug metabolism in human hepatocytes assessed as demethylated metabolite M3 formation at 10 uM after 2 hrs by LC/MS analysis. The format is ADME, cell-based, Hepatocyte.
Another data set concerns the target T3, PXR (NR1I2) (Homo sapiens, UniProt O75469).
T3 sequence (O75469 whole entry): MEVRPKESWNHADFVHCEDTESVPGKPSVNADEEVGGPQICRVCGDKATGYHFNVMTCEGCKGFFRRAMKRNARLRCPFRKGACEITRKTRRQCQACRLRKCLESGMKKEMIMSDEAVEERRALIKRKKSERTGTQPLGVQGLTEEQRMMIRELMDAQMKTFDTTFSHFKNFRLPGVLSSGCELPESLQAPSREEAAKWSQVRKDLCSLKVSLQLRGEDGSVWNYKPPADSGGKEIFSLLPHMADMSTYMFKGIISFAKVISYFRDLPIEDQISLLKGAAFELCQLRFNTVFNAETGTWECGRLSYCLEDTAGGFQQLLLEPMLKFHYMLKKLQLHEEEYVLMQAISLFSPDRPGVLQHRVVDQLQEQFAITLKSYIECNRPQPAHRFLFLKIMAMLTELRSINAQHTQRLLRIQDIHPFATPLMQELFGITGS
In words: Activation of human PXR at 2 uM relative to control. The format is ADME. The settings on record: read-out: Activity.

Data set [12] in a line: Drug metabolism in cynomolgus monkey hepatocytes assessed as oxidative metabolite M2 formation at 10 uM after 2 hrs by LC/MS analysis. The format is ADME, cell-based, Macaca fascicularis, Hepatocyte.
The nature of data set [13]: Clearance in iv dosed dog. The settings on record: in vivo. The format is ADME, organism-based, Canis lupus familiaris.
Data set [14] is described as follows: Drug metabolism in rat hepatocytes assessed as demethylated metabolite M3 formation at 10 uM after 2 hrs by LC/MS analysis. The format is ADME, cell-based, Hepatocyte.
In data set [15] the target is T2, CYP3A4. In words: Inhibition of CYP3A4 (unknown origin) at 3 uM. The format is ADME.
Data set [16] is described as follows: Clearance in iv dosed mouse. The format is ADME, organism-based. The settings on record: in vivo.
Data set [17] is described as follows: Antiproliferative activity p53 -deficient human HCT116 cells after 16 hrs by BrdU proliferation assay. The format is functional, cell-based. The conditions noted are these: HCT-116, 16 h.
The nature of data set [18]: Drug metabolism in rat hepatocytes assessed as oxidative metabolite M2 formation at 10 uM after 2 hrs by LC/MS analysis. The format is ADME, cell-based, Hepatocyte.
The test system of the next data set is Mus musculus. In words: Toxicity in human SJSA1 cells xenografted athymic nude mouse assessed as body weight loss at 10 to 50 mg/kg, po qd for 4 days. The format is organism-based, SJSA-1. Set-up: dose 10-50 mg/kg, route oral. The settings on record: in vivo, 96 h.
The nature of the next data set: animal or person. The conditions noted are these: Homo sapiens, HCT-116, po, 240 h.
Data set [19] in a line: Antiproliferative activity against human HCT116 cells expressing p53 wild type after 16 hrs by BrdU proliferation assay. The format is functional, cell-based. The conditions noted are these: HCT-116, 16 h.

T1 sequence (Q00987 whole entry): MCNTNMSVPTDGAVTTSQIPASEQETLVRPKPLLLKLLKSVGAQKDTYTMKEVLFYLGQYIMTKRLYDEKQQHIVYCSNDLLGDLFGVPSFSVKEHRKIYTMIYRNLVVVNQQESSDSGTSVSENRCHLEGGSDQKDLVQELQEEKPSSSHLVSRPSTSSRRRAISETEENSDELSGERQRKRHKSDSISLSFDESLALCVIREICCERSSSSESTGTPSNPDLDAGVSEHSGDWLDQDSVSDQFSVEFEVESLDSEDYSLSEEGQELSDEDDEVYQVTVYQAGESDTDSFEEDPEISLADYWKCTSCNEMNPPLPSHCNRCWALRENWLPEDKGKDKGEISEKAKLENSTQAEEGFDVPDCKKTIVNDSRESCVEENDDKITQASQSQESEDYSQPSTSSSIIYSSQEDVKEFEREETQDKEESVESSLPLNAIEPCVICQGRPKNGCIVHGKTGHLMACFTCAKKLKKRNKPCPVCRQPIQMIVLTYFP

`COc1cc(NC(=O)C[C@@]2(C)C[C@H](c3cccc(Cl)c3)[C@@H](c3ccc(Cl)c(F)c3)N([C@H](CS(=O)(=O)C(C)(C)C)C3CC3)C2=O)ccc1C(=O)O`: the Drug metabolism result in [1], in [4], in data set [5], in data set [9], in data set [11] and in data set [12] was “metabolite_detected” each time. Besides, the Drug metabolism entry in data set [14] and in data set [18] was “metabolite_detected” throughout. The results for the bioavailability in data set [2] and in data set [8] were 30% and 45%, respectively. Also, the Activity entry in the data set on SJSA-1 is “Active”. This molecule returned a Kd in [3] of 0.038 nM. Also, the IC50 in data set [6] was 0.6 nM; in data set [17] it was above 25 µM; in [19], 2 nM. For the same molecule, the inhibition in vivo at 100 mg/kg in [7] was 100%. In addition, at CYP3A4 [10], the activity at 0.5 h, 10 µM turned out to be 63%. The activity at 2 µM on PXR (NR1I2) stood at 0%. Moreover, the clearance was 11.5 mL/min/kg in data set [13] and 0.433 mL/min/kg in data set [16]. Moreover, the inhibition at 3 µM against CYP3A4 [15] is below 10%. The Activity entry in the data set with Mus musculus was “<= 5%”. The 50% effect level in the data set “animal or person” (ED50) was put at a dose of 10 mg/kg.
